Laboratory results: US20090131337A1, “HAIR GROWTH COMPOSITION” (AJINOMOTO CO. INC, priority 2006, published 2009)

Legend:
hair papilla cells = test: Hair papilla cell proliferation test (MTT method); assay type: cell-based; conditions: concentration used 100 · mol/L; 2 days culture; DMEM with 1% FCS; medium free of hair growth components = 100
Protocol: (1) Using a proliferation medium PCGM: Papilla Cell Growth Medium (purchased from TOYOBO CO., LTD., TPGM-250), hair papilla cells were plated to a cell seeding density of 1.0×10^4 cells/well in a 96 well plate.
(2) After culturing at 37° C. in a 5% carbon dioxide gas (CO2) atmosphere for one day, the medium was removed, and the cells were washed with an evaluation medium used for cell proliferation tests, i.e., DMEM (Dulbecco's Modified Eagle's Medium) medium containing 1% FCS (fetal bovine serum). Then, various test components were dissolved in a similar evaluation medium and added to various concentrations (* mol/l).
(3) Subsequently, the cells were further cultured at 37° C. in a 5% carbon dioxide gas (CO2) atmosphere for 2 days, and the hair papilla cell proliferation rate was measured by the MTT method.
(§1) (4) The relative evaluation value was calculated based on the rate obtained using a medium free of various hair growth components as 100, and the value was taken as the proliferation rate.

[1] = system: human epidermal keratinocytes; test: Human epidermal keratinocyte proliferation test (MTT method, MCDB153 medium); assay type: cell-based; conditions: concentration used 50 · mol/L, 2 days culture, medium free of hair growth components = 100
Protocol: (1) Using a serum-free proliferation medium HuMedia-KB2 (purchased from KURABO INDUSTRIES LTD., KK-2350S) added with a proliferation additive HuMedia-KG (purchased from KURABO INDUSTRIES LTD., KK-6150), human epidermal keratinocytes were plated to a cell seeding density of 2.0×10^4 cells/well in a 96 well plate.
(2) After culturing at 37° C. in a 5% carbon dioxide gas (CO2) atmosphere for one day, the medium was removed, and the cells were washed with an evaluation medium used for cell proliferation tests, i.e., MCDB153 medium. Then, various test components were dissolved in a similar evaluation medium and added to various concentrations (* mol/l).
(3) Subsequently, the cells were further cultured at 37° C. in a 5% carbon dioxide gas (CO2) atmosphere for 2 days, and the human epidermal keratinocyte proliferation rate was measured by the MTT method.
as §1

[2] = Solubility of glutamyllysine powder in solvents; assay type: physicochemical

Compound | hair papilla cell proliferation rate (%) (hair papilla cells) | keratinocyte proliferation rate (%) [1] [%] | solubility in alkaline water, acidic water ([2]; alkaline water, acidic water and the like) | solubility in organic solvents ([2]; various organic solvents such as methanol, ethanol, acetone)
Nc1ncnc2c1ncn2[C@@H]1O[C@H](CO)[C@@H](O)[C@H]1O [adenosine] | 99 | 118 | – | –
NC(CCCCNC(=O)CCC(N)C(=O)O)C(=O)O (centres unmarked) [glutamyllysine, Epsilon-N-(gamma-glutamyl)lysine] | 124 | 131 | soluble | hardly soluble or insoluble
Nc1cc(N2CCCCC2)nc(N)[n+]1[O-] [minoxidil] | 113 | 117 | – | –
